The values below come from patent publication EP4813980A1, “EP300/CBP REGULATOR, AND PREPARATION METHOD THEREFOR AND USE THEREOF” (Miracure Biotechnology Limited, priority 2023, dated 2025).

In general, pIC50 refers to −log10 of the IC50, conventionally taken in molar units. Lower therefore signals a high IC50.

Structures are written as SMILES. pIC50: −log10 of the molar value.

In one assay the test system is 22RV1 cells. The assay is described as follows: Cell growth inhibition, CellTiter-Glo, 72 h. The class given is cell-based. The note with it: Homo sapiens, 72 h culture, mean of N=2. How it is done: (§1) 22RV1, vCap, MM1S and OPM-2 cells were cultured in RPMI-1640 medium (10% fetal bovine serum and 100 units of penicillin/streptomycin dual-antibody per mL were added to RPMI-1640) in a cell incubator at 37°C with 5% CO2, respectively. Cells in logarithmic growth phase were seeded into 96-well cell culture plates at 5×10^3 cells/100 µL/well and cultured overnight. Active compounds dissolved in DMSO at different concentrations were added with a final concentration of 0.5% DMSO. 1% Tween 20 was used as positive control and 0.5% DMSO was used as negative control. After 72 h of culture, an equal volume of CellTiter-Glo was added to each well, mixed by shaking for 2 min, and left standing at room temperature for 10 min. […] signal values were read with a microplate reader. Data were analyzed and graphs were generated using Prism 7.0. The values shown are mean ± SEM (N=2). […] The formula for inhibition rate is as follows: % Inhibition = (Icompound−IZPE)/(IHPE−IZPE) × 100 [formula]
(§2) The X-axis is compound concentration (nM), and the Y-axis is % Inhibition.
Background: Cellular ATP, detected with luciferase, serves as a proxy for viable cell number.

In the next assay the test system is vCap cells. The assay is described as follows: Cell growth inhibition, CellTiter-Glo, 72 h. The class given is cell-based. The note with it: Homo sapiens, 72 h culture, mean of N=2. The procedure:
as §1, §2

With `CC(=O)N1Cc2cc(C3CCN(CCN4CCOC(CNc5cccc6c5C(=O)N(C5CCC(=O)NC5=O)C6=O)C4)CC3)cc(N3CCCc4cc(-c5cnn(C)c5)c(C(F)F)cc43)c2C1` (stereo not shown) [Compound 2001], the pIC50 with 22RV1 cells was 10.22; with vCap cells, 9.81. The matching figures for `CNC(=O)N1CCc2cc(C3CCN(CCN4CCC(CNc5cccc6c5C(=O)N(C5CCC(=O)NC5=O)C6=O)CC4)CC3)cc(N3CCCc4cc(-c5cnn(C)c5)c(C(F)F)cc43)c2C1` (stereo not shown) [Compound 2021]: 9.30 and 9.26. The matching figures for `CC(=O)N1Cc2cc(C3CCC(N4C(=O)C=CC4=O)CC3)cc(N3CCCc4cc(-c5cnn(C)c5)c(C(F)F)cc43)c2C1` (stereo not shown) [Compound 1385, 1-(4-{2-acetyl-7-[7-(difluoromethyl)-6-(1-methylpyrazol-4-yl)-3,4-dihydro-2H-quinolin-1-yl]-1,3-dihydroisoindol-5-yl}cyclohexyl)pyrrole-2,5-dione]: 6.45 and 6.84. The matching figures for `CNC(=O)N1CCc2cc(C3CCN(CCN4CCOC(CNc5cccc6c5C(=O)N(C5CCC(=O)NC5=O)C6=O)C4)CC3)cc(N3CCCc4cc(-c5cnn(C)c5)c(C(F)F)cc43)c2C1` (stereo not shown) [Compound 2010]: 10.10 and 9.71. With `CC(=O)N1Cc2cc(C3CCN(C(=O)CCCCC#Cc4ccc5c(c4)n(C)c(=O)n5C4CCC(=O)NC4=O)CC3)cc(N3CCCc4cc(-c5cnn(C)c5)c(C(F)F)cc43)c2C1` (stereo not shown) [Compound 2032, 3-{5-[7-(4-{2-acetyl-7-[7-(difluoromethyl)-6-(1-methylpyrazol-4-yl)-3,4-dihydro-2H-quinolin-1-yl]-1,3-dihydroisoindol-5-yl}piperidin-1-yl)-7-oxohept-1-yn-1-yl]-3-methyl-2-oxo-1,3-benzodiazol-1-yl}piperidine-2,6-dione], the negative logarithm of the IC50 (pIC50) in the assay with 22RV1 cells is 9.80; in the assay with vCap cells, 9.96.

In the case of `CNC(=O)N1CCc2cc(C3CCN(CC4CCN(CCCc5cccc6c5C(=O)N(C5CCC(=O)NC5=O)C6=O)CC4)CC3)cc(N3CCCc4cc(-c5cnn(C)c5)c(C(F)F)cc43)c2C1` (stereo not shown) [Compound 2022], the negative-log IC50 (pIC50) with 22RV1 cells was 9.52; in the assay with vCap cells, 8.67.

Turning to `CNC(=O)N1CCc2cc(C3CCN(Cc4ccc(COc5cccc6c5CN(C5CCC(=O)NC5=O)C6=O)cc4)CC3)cc(N3CCCc4cc(-c5cnn(C)c5)c(C(F)F)cc43)c2C1` (stereo not shown) [Compound 2015, 8-(7-(difluoromethyl)-6-(1-methyl-1H-pyrazol-4-yl)-3,4-dihydroquinolin-1(2H)-yl)-6-(1-(4-(((2-(2,6-dioxopiperidin-3-yl)-1-oxoisoindolin-4-yl)oxy)methyl)benzyl)piperidin-4-yl)-N-methyl-3,4-dihydroisoquinoline-2(1H)-carboxamide], the negative logarithm of the IC50 (pIC50) in the assay on 22RV1 cells was 10.30; with vCap cells it was 11.00. The matching figures for `CNC(=O)N1CCc2cc(C3CCN(C(=O)CCCCCCCNc4ccc5c(c4)n(C)c(=O)n5C4CCC(=O)NC4=O)CC3)cc(N3CCCc4cc(-c5cnn(C)c5)c(C(F)F)cc43)c2C1` (stereo not shown) [Compound 2013]: 11.00 and 9.35. The matching figures for `CC(=O)N1Cc2cc(C3CCN(Cc4ccc(COc5cccc6c5CN(C5CCC(=O)N(CO)C5=O)C6=O)cc4)CC3)cc(N3CCCc4cc(-c5cnn(C)c5)c(C(F)F)cc43)c2C1` (stereo not shown) [Compound 2053]: 8.99 and 9.44.

Take `CNC(=O)N1CCc2cc(C3CCN(C(=O)CCCCCCNc4cccc5c4n(C)c(=O)n5C4CCC(=O)NC4=O)CC3)cc(N3CCCc4cc(-c5cnn(C)c5)c(C(F)F)cc43)c2C1` (stereo not shown) [Compound 2016, 8-[7-(difluoromethyl)-6-(1-methylpyrazol-4-yl)-3,4-dihydro-2H-quinolin-1-yl)-6-[1-[7-[[1-(2,6-dioxo-3-piperidinyl)-3-methyl-2-oxobenzoimidazol-4-yl]amino]heptanoyl]-4-piperidinyl]-N-methyl-3,4-dihydro-1H-isoquinoline-2-carboxamide]: the results for the pIC50 in the assay on 22RV1 cells and in the assay with vCap cells were 11.00 and over 11.30, respectively. The matching figures for `CC(=O)N1Cc2cc(C3CCN(CCN4CCC(COc5cccc6c5CN(C5CCC(=O)NC5=O)C6=O)CC4)CC3)cc(N3CCCc4cc(-c5cnn(C)c5)c(C(F)F)cc43)c2C1` (stereo not shown) [Compound 2055]: 9.27 and 9.59.

For the compound `CC(=O)N1CCc2cc(C3CCN(C(=O)CCCCCCCNc4ccc5c(c4)C(=O)N(C4CCC(=O)NC4=O)C5=O)CC3)cc(N3CCCc4cc(-c5cnn(C)c5)c(C(F)F)cc43)c2C1` (stereo not shown) [Compound 2025, 5-[[8-[4-[2-acetyl-8-[7-(difluoromethyl)-6-(1-methylpyrazol-4-yl)-3,4-dihydro-2H-quinolin-1-yl]-3,4-dihydro-1H-isoquinolin-6-yl]-1-piperidinyl]-8-oxooctyl]amino]-2-(2,6-dioxo-3-piperidinyl)isoindoline-1,3-dione], the pIC50 in the assay on 22RV1 cells was 5.41; in the assay with vCap cells, 5.12. Regarding `CNC(=O)N1CCc2cc(C3CCN(C(=O)CCCCCCNc4ccc5c(c4)n(C)c(=O)n5C4CCC(=O)NC4=O)CC3)cc(N3CCCc4cc(-c5cnn(C)c5)c(C(F)F)cc43)c2C1` (stereo not shown) [Compound 2028, 8-[7-(difluoromethyl)-6-(1-methylpyrazol-4-yl)-3,4-dihydro-2H-quinolin-1-yl]-6-[1-[7-[[1-(2,6-dioxo-3-piperidinyl)-3-methyl-2-oxo-benzimidazol-5-yl]amino]heptanoyl]-4-piperidinyl]-N-methyl-3,4-dihydro-1H-isoquinoline-2-carboxamide], the figures for the pIC50 in the assay on 22RV1 cells and in the assay with vCap cells were 10.00 and 9.59, respectively. Consider `CC(=O)n1cc2cc(C3CCN(C(=O)CCCCCCOc4ccc5c(c4)n(C)c(=O)n5C4CCC(=O)NC4=O)CC3)cc(N3CCCc4cc(-c5cnn(C)c5)c(C(F)F)cc43)c2c1` (stereo not shown) [Compound 2029, 3-(5-((7-(4-(2-acetyl-7-(7-(difluoromethyl)-6-(1-methyl-1H-pyrazol-4-yl)-3,4-dihydroquinolin-1(2H)-yl)isoindol-5-yl)piperidin-1-yl)-7-oxoheptyl)oxy)-3-methyl-2-oxo-2,3-dihydro-1H-benzo[d]imidazol-1-yl)piperidine-2,6-dione], for which the pIC50 is 10.40 with 22RV1 cells and 10.52 in the assay with vCap cells. Regarding `CC(=O)N1Cc2cc(C3CCN(C(=O)CCCCCCNc4ccc5c(c4)n(C)c(=O)n5C4CCC(=O)NC4=O)CC3)cc(N3CCCc4cc(-c5cnn(C)c5)c(C(F)F)cc43)c2C1` (stereo not shown) [Compound 2027], the negative logarithm of the IC50 (pIC50) in the assay with 22RV1 cells was 10.40; in the assay on vCap cells, 11.00. The matching figures for `COC(=O)N1Cc2cc(C3CCN(C(=O)CCOCCOCCOCCOCCNc4ccc5c(c4)C(=O)N(C4CCC(=O)NC4=O)C5=O)CC3)cc(N3CCCc4cc(-c5cnn(C)c5)c(C(F)F)cc43)c2C1` (stereo not shown) [Compound 2024]: 5.41 and 5.34.

`CNC(=O)N1CCc2cc(C3CCN(CCN4CCC(CCc5cccc6c5C(=O)N(C5CCC(=O)NC5=O)C6=O)CC4)CC3)cc(N3CCCc4cc(-c5cnn(C)c5)c(C(F)F)cc43)c2C1` (stereo not shown) [Compound 2014, 8-(7-(difluoromethyl)-6-(1-methylpyrazol-4-yl)-3,4-dihydro-2H-quinolin-1-yl)-6-[1-[2-[4-[2-[2-(2,6-dioxo-3-piperidinyl)-1,3-dioxoisoindolin-4-yl]ethyl]-1-piperidinyl]ethyl]-4-piperidinyl]-N-methyl-3,4-dihydro-1H-isoquinoline-2-carboxamide] had a pIC50 in the assay on vCap cells of 7.96. `CC(=O)N1Cc2cc(C3CCN(CCc4ccc(COc5cccc6c5CN(C5CCC(=O)NC5=O)C6=O)cc4)CC3)cc(N3CCCc4cc(-c5cnn(C)c5)c(C(F)F)cc43)c2C1` (stereo not shown) [Compound 2031]: the results for the pIC50 with 22RV1 cells and in the assay on vCap cells were 10.40 and 9.68, respectively. The matching figures for `CC(=O)N1Cc2cc(C3CCN(CC4CCN(CCCc5cccc6c5C(=O)N(C5CCC(=O)NC5=O)C6=O)CC4)CC3)cc(N3CCCc4cc(-c5cnn(C)c5)c(C(F)F)cc43)c2C1` (stereo not shown) [Compound 2020]: 8.73 and 9.28. On to `CC(=O)N1Cc2cc(C3CCN(CCN4CCC(CNc5cccc6c5C(=O)N(C5CCC(=O)NC5=O)C6=O)CC4)CC3)cc(N3CCCc4cc(-c5cnn(C)c5)c(C(F)F)cc43)c2C1` (stereo not shown) [Compound 2019], for which the negative-log IC50 (pIC50) with 22RV1 cells is 8.61; in the assay with vCap cells, 8.90. The matching figures for `CC(=O)N1Cc2cc(C3CCN(C(=O)CCCCCCCCNc4ccc5c(c4)n(C)c(=O)n5C4CCC(=O)NC4=O)CC3)cc(N3CCCc4cc(-c5cnn(C)c5)c(C(F)F)cc43)c2C1` (stereo not shown) [Compound 2009]: 10.40 and 11.00. In the case of `CC(=O)N1Cc2cc(C3CCN(CCN4CCC(CCc5cccc6c5C(=O)N(C5CCC(=O)NC5=O)C6=O)CC4)CC3)cc(N3CCCc4cc(-c5cnn(C)c5)c(C(F)F)cc43)c2C1` (stereo not shown) [Compound 2005], the negative-log IC50 (pIC50) in the assay with 22RV1 cells is 8.11. In the assay on 22RV1 cells, `CC(=O)N1Cc2cc(C3CCN(Cc4ccc(CCOc5cccc6c5CN(C5CCC(=O)NC5=O)C6=O)nc4)CC3)cc(N3CCCc4cc(-c5cnn(C)c5)c(C(F)F)cc43)c2C1` (stereo not shown) [Compound 2035, 3-[4-(2-{5-[(4-{2-acetyl-7-[7-(difluoromethyl)-6-(1-methylpyrazol-4-yl)-3,4-dihydro-2H-quinolin-1-yl]-1,3-dihydroisoindol-5-yl}piperidin-1-yl)methyl]pyridin-2-yl}ethoxy)-1-oxo-3H-isoindol-2-yl]piperidine-2,6-dione] showed a pIC50 of 8.59.
